Results as given in patent US20070191402A1, “Method of searching substrate having antidiabetic activity” (KYOWA HAKKO KOGYO CO., LTD., priority 2002, published 2007).

Legend:
[1] = system: pancreatic β cell (MIN6 cell); assay: Inhibition of binding of [3H]-labeled Compound 16 to pancreatic β cell; design: species or system murine; settings: for Binding inhibitory activity (%): test compound 1 μmol/l, 10 nmol/l [3H]-labeled Compound 16, MIN6 cell, 4° C.; for Binding inhibition (%): pancreatic β cells, [3H]-labeled Compound 16, tested substance 1 μmol/l or 10 μmol/l
Procedure: MIN6 cell cultured to almost confluence in a 24-well plate for cell culture (manufactured by Corning) was washed twice with KRH buffer (119 mmol/l NaCl, 4.74 mmol/KCl, 2.54 mmol/l calcium chloride (CaCl2), 1.19 mmol/l magnesium sulfate (MgSO4), 1.19 mmol/l potassium dihydrogen phosphate (KH2PO4), 10 mmol/l HEPES, 2 mmol/l glucose, 0.1 w/v % bovine serum albumin (BSA), pH 7.3). Subsequently, the KRH buffer was added at 1 ml per well, for preincubation at 37° C. for 45 minutes. After preincubation, the supernatant was discarded, and 0.15 ml of the KRH buffer, […] at 4° C. for one hour or longer until the reaction reached equilibrium. Subsequently, the cell was washed twice using the KRH buffer. The KRH buffer was added at 2 ml per well, which was then left to stand at room temperature for 20 minutes. The cell was again washed twice by using the KRH buffer. The radioactivity remaining in each well was counted with a liquid scintillation counter to determine the binding amount.
The difference between the binding amount of the [^3H]-labeled Compound 16 (total binding amount) under conditions with no addition of any test compound and the binding amount of the [^3H]-labeled Compound 16 (non-specific binding amount) under conditions in the presence of the Compound 16 at 10 μmol/l was defined as specific binding amount.
According to the method described in Example 5, a substance having anti-diabetic activity was screened for, using the inhibitory activity of the binding between pancreatic β cells and [^3H]-labeled Compound 16. A tested substance was dissolved in dimethylsulfoxide and then added to give a final concentration of 1 μmol/l. The radioactivity with addition of the unlabeled Compound 16 was defined as the non-specific binding amount and the radioactivity without addition of the unlabeled Compound 16 was defined as the total binding amount, and then the individual specific binding amounts were calculated by the method described in Example 6. Using the following formula, the binding inhibition ratio was determined. [formula]

MIN6 cell = assay: Insulin secretion test using MIN6 cell; type: cell-based, murine; settings: for Insulin secretory activity (%): MIN6 cell, glucose 14.5 mmol/l or 8.4 mmol/l; for Insulin secretion-promoting activity (%): 10 μmol/l
Procedure: Culturing MIN6 cell and testing insulin secretion using MIN6 cell were carried out according to the method described in Diabetorogia, 36, 1139-1145 (1993).
In other words, the influence of a compound on the insulin secretion activity in the presence of 14.5 mmol/l glucose was assessed by assaying the amount of insulin in the cell culture supernatant collected as follows.
The MIN6 cell cultured in a 24-well plate was washed twice with 1 ml of buffer A [119 mmol/l NaCl, 4.74 mmol/l KCl, 2.54 mmol/l CaCl2, 1.19 mmol/l MgSO4, 1.19 mmol/l KH2PO4, 10 mmol/l 2-[4-(2-hydroxylethyl)-1-piperadinyl]ethanesulfonic acid, 0.1% BSA, pH 7.3] containing 2 mmol/l glucose. Subsequently, the resulting cell was incubated in 1 ml of the buffer A containing 2 mmol/l glucose at 37° C. for 45 minutes. The culture supernatant was exchanged with the buffer A (1 ml) containing test compounds of various concentrations and 8.4 mmol/l glucose and incubated at 37° C. for 45 minutes to collect the culture supernatant.
Antibody-reactive insulin secreted in the culture supernatant was assayed by radioimmunoassay [Methods in Investigative and Diagnostic Endocrinology, Vol. 2A, 2B, North-Holland Publishing Co., Amsterdam (1973)] after the culture supernatant was diluted with phosphate buffer containing 1% BSA, 0.1% Tween 20, 0.12% EDTA 2Na, and 0.1% sodium azide. A standard curve was prepared by using human insulin as the standard substance, and individual insulin values were calculated on the basis of the curve.

[2] = promoted insulin secretion level of Compound 16 = 100%

Row | SMILES | Binding inhibitory activity (%) [1] | Insulin secretory activity (%) (MIN6 cell) | also measured
1 | CCCN1C(=O)N2CC(Cc3ccccc3)N=C2c2[nH]c(C3CCCCC3)nc21 (centres unmarked) [compound 38] | 71.8% | 83.0% | 
2 | CCCN1C(=O)N2CC(Cn3cccc3)N=C2c2[nH]c(C3CCCC3)nc21 (centres unmarked) [compound 117] | 68.6% | 43.5% | 
3 | CCCN1C(=O)N2CC(CCc3ccccc3)N=C2c2[nH]c(C3CCCC3)nc21 (centres unmarked) [compound 31] | 112.4% | 80.5% | 
4 | CCCN1C(=O)N2CC(Cc3ccccc3)N=C2c2[nH]c(COCC)nc21 (centres unmarked) [compound 138] | 60.7% | 7.8% | 
5 | CC(C)(C)Nc1nc(NC(C)(C)C)nc(N2CCOCC2)n1 [compound 194] |  |  | Binding inhibition (%) [1]: 78.1%; Insulin secretion-promoting activity (%) (MIN6 cell; [2]): 122.7%
6 | CCCc1nc2c([nH]1)C1=NC(Cc3ccc(C#N)cc3)CN1C(=O)N2CCC (centres unmarked) [compound 185] | 38.4% | 30.7% | 
7 | CCCN1C(=O)N2CC(Cc3ccccc3)N=C2c2[nH]c(C(C)C)nc21 (centres unmarked) [compound 41] | 55.0% | 37.2% | 
8 | O=C1N2CC(Cc3ccccc3)N=C2c2[nH]c(C3CCCC3)nc2N1c1ccccc1 (centres unmarked) [compound 85] | 72.0% | 26.7% | 
9 | O=C1N2CC(Cc3ccccc3)N=C2c2[nH]c(C3CCCC3)nc2N1CCCO (centres unmarked) [compound 189] | 56.4% | 44.9% | 
10 | CCCN1C(=O)N2CC(Cc3ccccc3)N=C2c2[nH]c(CC3CCCC3)nc21 (centres unmarked) [compound 40] | 38.5% | 76.3% | 
11 | CCCN1C(=O)N2CC(Cc3ccccc3)N=C2c2[nH]c(C(C)(C)C)nc21 (centres unmarked) [compound 43] | 77.6% | 54.4% | 
12 | CN(C)c1nc(NC(C)(C)C)nc(NC(C)(C)C)n1 [compound 198] |  |  | Binding inhibition (%) [1]: 99.0%; Insulin secretion-promoting activity (%) (MIN6 cell; [2]): 30.6%
13 | CCCN1C(=O)N2CC(Cc3ccccc3)N=C2c2[nH]c(C3CCCO3)nc21 (centres unmarked) [compound 144] | 50.5% | 28.5% | 
14 | C1=CC2N=CN(c3nc(-n4cnc5ccccc54)nc(-n4cnc5ccccc54)n3)C2C=C1 (centres unmarked) [compound 197] |  |  | Binding inhibition (%) [1]: 15.0%; Insulin secretion-promoting activity (%) (MIN6 cell; [2]): 31.9%
15 | CCCN1C(=O)N2CC(Cc3ccc(O)cc3)N=C2c2[nH]c(C3CCCC3)nc21 (centres unmarked) [compound 76] | 12.6% | 16.9% | 
16 | CCCN1C(=O)N2CC(Cc3cccc(C)c3)N=C2c2[nH]c(C3CCCC3)nc21 (centres unmarked) [compound 61] | 50.8% | 80.4% | 
17 | CCCN1C(=O)N2CC(Cc3ccccc3)N=C2c2[nH]c(C)nc21 (centres unmarked) [compound 183] | 41.6% | 22.5% | 
18 | CCCN1C(=O)N2CC(Cc3ccccc3)N=C2c2[nH]c(C3CCC(O)CC3)nc21 (centres unmarked) [compound 147] | 56.8% | 45.6% | 
19 | CCCN1C(=O)N2CC(Cn3cncn3)N=C2c2[nH]c(C3CCCC3)nc21 (centres unmarked) [compound 116] | 7.9% | −1.7% | 
20 | CN1C(=O)N2CC(Cc3ccccc3)N=C2c2[nH]c(C3CCCC3)nc21 (centres unmarked) [compound 84] | 66.4% | 31.7% | 
21 | O=C1N2CC(Cc3ccccc3)N=C2c2[nH]c(C3CCCC3)nc2N1Cc1ccc(F)cc1 (centres unmarked) [compound 175] | 49.5% | 54.7% | 
22 | CCCc1nc2c([nH]1)C1=NC(Cc3ccccc3)CN1C(=O)N2CCC (centres unmarked) [compound 184] | 78.5% | 75.0% | 
23 | CNc1nc(NC(C)(C)C)nc(NC(C)(C)C)n1 [compound 193] |  |  | inhibition ratio (binding of [3H]-labeled Compound 16 to pancreatic β cells) ([1]; at 10 μmol/l): 84%; Binding inhibition (%) [1]: 84.0%; Insulin secretion-promoting activity (%) (MIN6 cell; [2]): 194.8%; promoted insulin secretion level (MIN6 cell; [2]): 195%
24 | CCCN1C(=O)N2CC(Cc3ccc(F)cc3)N=C2c2[nH]c(C3CCCC3)nc21 (centres unmarked) [compound 187] | 73.5% | 85.0% | 
25 | CCCN1C(=O)N2CC(Cc3ccccc3)N=C2c2[nH]c(C3CCC3)nc21 (centres unmarked) [compound 37] | 73.7% | 61.0% | 
26 | CCCN1C(=O)N2CC(Cc3ccccc3)N=C2c2[nH]c(C3CC3)nc21 (centres unmarked) [compound 36] | 57.9% | 47.0% | 
27 | CCCN1C(=O)N2CC(Cc3ccc(C(=O)O)cc3)N=C2c2[nH]c(C3CCCC3)nc21 (centres unmarked) [compound 188] | −7.6% | −8.0% | 
